The values that follow are results of earlier work, collected in PMC10178506, “Chemical and Biological Evaluation of Novel 1H-Chromeno[3,2-c]pyridine Derivatives as MAO Inhibitors Endowed with Potential Anticancer Activity” (International Journal of Molecular Sciences, 2023).

One may read the IC50 as the concentration at which inhibition is half-maximal.

The structures appear in SMILES notation.

Series [1] concerns AChE. Also on record: method as in PMID 32716595. The settings on record: read-out: AChE IC50 (previous work); cited from earlier work.
Series [2] concerns MAO B. Also on record: method as in PMID 32716595. The note with it: read-out: MAO B IC50 (previous work); cited from earlier work.

On to `CC(C)N1CCc2oc3ccc(Br)cc3c(=O)c2C1`, for which the figures for the concentration for half-maximal inhibition (IC50) in series [1] and in series [2] were 3.22 µM and 2230 nM, respectively.

For `CCOc1cccc2c(=O)c3c(oc12)CCN(Cc1ccccc1)C3`, the IC50 in series [2] was 890 nM.
